# Assay results published in PMC7646182, “Design and biological evaluation of novel BF-30 analogs for the treatment of malignant melanoma” (Journal of Cancer, 2020).
# Test system: B16F10 melanoma
# Experiment: Chronic study in B16F10-bearing mouse model
# Assay type: in vivo
# Conditions: B16F10-bearing C57BL/6J mice, 4-week treatment; LBF-14 0.3 and 0.9 mg/kg, cisplatinum 0.1 mg/kg, n=10
# Protocol: The B16F10 cells (0.1 ml, 5×10^6 cells, cell viability >99%) were subcutaneously transplanted into the C57BL/6J mice. In the next 15 days, the length (L), width (W) and height (H) of tumours were measured with a caliper to calculate tumour volume using the formula: V = π/6×L×W×H. When the tumours grew to 150-350 mm^3, the melanoma model mice were randomly divided into five groups (n=10) and received saline, native BF-30 at 0.9 mg/kg, LBF-14 at […] doses of 0.3 and 0.9 mg/kg, and cisplatinum at the dose of 0.1 mg/kg, respectively. All the samples including the saline and different doses of LBF-14 were administered twice weekly by intra-tumour injection (50 μl) for 4 successive weeks. All melanoma model mice were weighted and sacrificed at the end of the experimental period (day 29). The anti-tumour efficacies of LBF-14 at both two doses were presented as inhibitory rates (%) which were calculated as [(A-B)/A]×100% (average tumour weight of (A) saline treated group and (B) LBF-14 treated groups, respectively). In addition, the tumours from the B16F10-bearing mice were separated and then performed H&E staining according to the standard operating procedures.
smiles,measurement,value
N.N.[Cl][Pt][Cl] [cisplatinum],effect on body weight of model mice,significant decrease in body weight
